These results are taken from US5639904A, “1-aryloxy-3-alkylamino-2-propanol nitrate esters, the use thereof and corresponding pharmaceutical composition” (Prodesfarma, S.A., priority 1993, dated 1997).

Holding throughout (assay type): cell-based
In assay [1] the test system is helical strips of swine coronary artery (potassium-induced contraction). The experiment in a line: In vitro coronary vasodilator activity: antagonism of contractions induced by potassium (35 mM). To be noted: Sus scrofa; for pIC50: read-out: inhibitory concentration 50 (IC50), effect on K+-induced contractions in swine coronary artery; for inhibition at 100 µM: read-out: inhibition of K+-induced contractions in swine coronary artery. The procedure:
(§1) The coronary vasodilator activity of the synthesized products was determined in vitro from their capacity to antagonize the contractions induced by a) potassium (35 mM) b) calcium (1.5 mM) and c) serotonin (1 mM) in helical strips of swine coronary artery, using Nitroglycerine and Nicorandil as reference drugs (Table 1).

Assay [2] addresses T1, β1-adrenergic (isolated guinea pig left auricle) (Cavia porcellus, UniProt H0W3H1).
T1 construct: electrically stimulated isolated left auricle of the guinea pig; from tissue; host or cells: isolated left auricle of guinea pig
The experiment in a line: In vitro β1-adrenergic blocking activity: antagonism of isoprenaline-induced positive inotropic response in electrically stimulated isolated left auricle. From the text: In parallel tests, the effect of the said compounds on the positive isoprenaline-induced inotropic response in electrically stimulated isolated left auricle of the guinea pig, as evidence of β1 -adrenergic blocking activity (Table 2) was established.
BLOCKING ACTIVITY IN VITRO

For assay [3], the system named is helical strips of swine coronary artery (calcium-induced contraction). The experiment in a line: In vitro coronary vasodilator activity: antagonism of contractions induced by calcium (1.5 mM). As to conditions: Sus scrofa; for pIC50: read-out: inhibitory concentration 50 (IC50), effect on Ca2+-induced contractions in swine coronary artery. As for the experimental part:
as §1

Assay [4] relates to helical strips of swine coronary artery (serotonin-induced contraction). In words: In vitro coronary vasodilator activity: antagonism of contractions induced by serotonin (1 mM). As to conditions: Sus scrofa; for pIC50: read-out: inhibitory concentration 50 (IC50), effect on serotonin-induced contractions in swine coronary artery. The procedure: as §1
[5] abbreviates: electrically stimulated isolated guinea pig left auricle, read-out: inhibitory concentration 50 (IC50), antagonism of isoprenaline-induced positive inotropic response.

pIC50: −log10 of the molar value. Where two headings read alike, the source gives them in different places.

T1 sequence (H0W3H1 1-470): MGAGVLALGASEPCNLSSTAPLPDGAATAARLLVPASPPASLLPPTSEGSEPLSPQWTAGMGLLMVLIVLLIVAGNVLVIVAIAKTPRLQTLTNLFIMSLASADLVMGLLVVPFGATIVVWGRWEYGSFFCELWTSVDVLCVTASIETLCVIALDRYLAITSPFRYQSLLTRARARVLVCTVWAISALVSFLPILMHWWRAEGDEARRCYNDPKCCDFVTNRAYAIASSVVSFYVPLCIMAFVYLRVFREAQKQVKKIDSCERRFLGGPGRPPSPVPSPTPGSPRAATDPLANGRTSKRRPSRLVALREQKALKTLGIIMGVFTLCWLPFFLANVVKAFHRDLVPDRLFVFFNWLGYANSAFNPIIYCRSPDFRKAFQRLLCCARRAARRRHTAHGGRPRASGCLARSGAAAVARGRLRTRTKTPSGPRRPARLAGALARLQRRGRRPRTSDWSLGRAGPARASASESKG

As usually defined, the inhibition is the drop in the measured response relative to a control, in per cent. On to `CC(C)NCC(O)COc1ccc(COCCCO[N+](=O)[O-])cc1` (stereo not drawn) [1-isopropylamino-3-[4-(3-nitroxy)propoxymethyl]phenoxy-2-propanol], for which the results for the pIC50 in assay [1] (potassium 35 mM), in assay [2] (setting [5]) and in assay [4] (serotonin 1 mM) were 5.15, 6.15 and 5.22, respectively. Also, the inhibition at 30 µM in assay [3] (at 30 μM, calcium 1.5 mM, read-out: inhibition of Ca2+-induced contractions in swine coronary artery) stood at 50%.

Regarding `CC(C)NCC(O)COc1ccc(CC(N)=O)cc1` (stereo not drawn) [Atenolol, reference compound], the inhibition at 100 µM in assay [1] was found to be 25%. The compound also showed a pIC50 in assay [2] of 6.15.

For the compound `O=C(NCCO[N+](=O)[O-])c1cccnc1` [Nicorandil, reference compound], the pIC50 is 4.30 in assay [1] (potassium 35 mM), 3.77 in assay [3] (calcium 1.5 mM) and 4.83 in assay [4] (serotonin 1 mM).

With `O=[N+]([O-])OCC(CO[N+](=O)[O-])O[N+](=O)[O-]` [Nitroglycerine, reference compound], the pIC50 in assay [1] (potassium 35 mM) was 5.89; in assay [4] (serotonin 1 mM), 6.00. The inhibition at 100 µM in assay [3] (at 0.1 mM, calcium 1.5 mM, read-out: inhibition of Ca2+-induced contractions in swine coronary artery) came to 50%.

On to `COCCc1ccc(OCC(O)CNC(C)C)cc1` (stereo not drawn) [Metoprolol, reference compound], for which the inhibition at 100 µM in assay [1] (at 0.1 mM, potassium 35 mM) worked out at 30%; in assay [4] (serotonin 1 mM) it was 20%.

For the compound `CC(C)NCC(O)COc1ccc(COCC(CO[N+](=O)[O-])O[N+](=O)[O-])cc1` (stereo not drawn) [1-isopropylamino-3-[4-(2,3-dinitroxy)-propoxymethyl]phenoxy-2-propanol], the pIC50 in assay [1] was 6.30; in assay [2], 5.32; in assay [3], 5.77; in assay [4] it was 5.80.

As for `CC(C)NCC(O)COc1ccc(COCCO[N+](=O)[O-])cc1` (stereo not drawn) [1-isopropylamino-3-[4-(2-nitroxy)ethoxymethyl]phenoxy-2-propanol], the pIC50 was 5.47 in assay [1] (potassium 35 mM), 6.22 in assay [2] (setting [5]) and 4.88 in assay [4] (serotonin 1 mM).

For `CC(C)NCC(O)COc1ccc2ccccc2c1CC(=O)NCCO[N+](=O)[O-]` (stereo not drawn) [2-(2-hydroxy-3-isopropylamino)propoxy-N-(2-nitroxyethyl)-1-naphthalene acetamide], in assay [1] (potassium 35 mM), the pIC50 was 4.54. The inhibition at 100 µM in assay [2] (at 0.1 mM, electrically stimulated isolated guinea pig left auricle) came to 25%; in assay [4] (serotonin 1 mM), 50%. Besides, in assay [3] (at 10 μM, calcium 1.5 mM, read-out: inhibition of Ca2+-induced contractions in swine coronary artery), the inhibition at 10 µM was 20%.

In the case of `CC(C)NCC(O)COc1ccc(CC(=O)OCCO[N+](=O)[O-])cc1` (stereo not drawn) [2-nitroxyethyl 4-[(2-hydroxy-3-isopropylamino)propoxy]phenyl acetate], the pIC50 in assay [1] (potassium 35 mM) was 6.52; in assay [2] (setting [5]), 5.12; in assay [3] (calcium 1.5 mM), 4.88; in assay [4] (serotonin 1 mM) it was 5.24.

`CC(C)NCC(O)COc1c(CC(=O)NCCO[N+](=O)[O-])ccc2ccccc12` (stereo not drawn) [1-(2-hydroxy-3-isopropylamino)propoxy-N-(2-nitroxyethyl)-2-naphthalene acetamide]: the pIC50 in assay [1] (potassium 35 mM) is 4.39.
